Where two headings read alike, the source gives them in different places.
Experiments:
Calmodulin = Calmodulin (Homo sapiens, UniProt P0DP23); details: read-out: published Kd Calmodulin-calcium ion; cited from earlier work
Calmodulin (CaM) = target: T1, Calmodulin (CaM) (Homo sapiens, UniProt P0DP23); test: BSI stop-flow label-free homogeneous binding to Calmodulin; details: for Kd: 5 μM CaM, 12.5-100 μM Ca^2+, pH 7.5, 25° C.
T1 construct: purchased Sigma, St. Louis, Mo

control: change in signal above that observed in the absence of excess EGTA (Calmodulin (CaM); 5 μM CaM and 100 μM Ca^2+, both with excess EGTA (400 μM)): < 3% | Kd (Calmodulin (CaM); read-out: Kd CaM-Ca^2+ from kinetic analysis (single exponential, least squares)): 3.36 µM | Kd (Calmodulin (CaM); read-out: Kd CaM-Ca^2+ from steady-state values, Prism software): 17.8 µM
SMILES: [Ca+2] [Ca^2+]
Kd (Calmodulin): 1 to 10 µM
